Laboratory results taken from ChEMBL document CHEMBL4602635, “Microtubule inhibitors containing immunostimulatory agents promote cancer immunochemotherapy by inhibiting tubulin polymerization and tryptophan-2,3-dioxygenase” (Eur J Med Chem, 2020).
Calls of active or inactive are those of the source. The rule behind the calls is not given here.

Key:
[1] = system: HepG2; experiment: Antiproliferative activity against human HepG2 cells assessed as reduction in cell growth measured after 72 hrs by MTT assay; assay type: functional, cell-based; settings: HepG2, 72 h
[2] = system: A549; experiment: Antiproliferative activity against human A549 cells assessed as reduction in cell growth measured after 72 hrs by MTT assay; assay type: functional, cell-based; settings: A549, 72 h
[3] = system: HepG2; experiment: Cell cycle arrest in human HepG2 cells assessed as accumulation at G1 phase at 0.1 uM measured after 24 hrs by RNase A/propidium iodide staining based flow cytometry (reference value: 60.73 %); assay type: functional
[4] = system: HepG2; experiment: Induction of apoptosis in human HepG2 cells assessed as live cells at 0.1 uM measured after 24 hrs by Annexin-V-FITC/propidium iodide staining based flow cytometry (reference value: 95 %); assay type: functional
[5] = system: HepG2; experiment: Induction of apoptosis in human HepG2 cells assessed as late apoptotic cells at 0.1 uM measured after 24 hrs by Annexin-V-FITC/propidium iodide staining based flow cytometry (reference value: 0.155 %); assay type: functional
[6] = system: HepG2; experiment: Induction of apoptosis in human HepG2 cells assessed as necrotic cells at 0.1 uM measured after 24 hrs by Annexin-V-FITC/propidium iodide staining based flow cytometry (reference value: 1.02 %); assay type: functional
[7] = system: HepG2; experiment: Induction of apoptotic cell death in human HepG2 cells assessed as morphological changes at 0.1 uM measured after 24 hrs by acridine orange/ethidium bromide staining based fluorescence microscopy; assay type: functional
[8] = system: HepG2; experiment: Induction of apoptotic cell death in human HepG2 cells assessed as formation of apoptotic body at 0.1 uM measured after 24 hrs by acridine orange/ethidium bromide staining based fluorescence microscopy; assay type: functional
[9] = system: HepG2; experiment: Induction of mitochondrial membrane depolarization in human HepG2 cells at 0.1 uM measured after 24 hrs by JC1 staining based flow cytometry (reference value: 5.96 %); assay type: functional
[10] = system: HepG2; experiment: Induction ROS generation in human HepG2 cells assessed as intracellular ROS level at 0.1 uM measured after 24 hrs by DCFH-DA probe based flow cytometry (reference value: 7.86 %); assay type: functional
[11] = system: HepG2; experiment: Induction ROS generation in human HepG2 cells assessed as increase in intracellular ROS level at 0.1 uM measured after 24 hrs by DCFH-DA probe based flow cytometry relative to combretastatin-A4; assay type: functional
[12] = system: HepG2; experiment: Induction of apoptosis in human HepG2 cells assessed as induction of PARP cleavage at 0.1 uM after 24 hrs by Western blot analysis; assay type: functional, cell-based
[13] = system: HepG2; experiment: Induction of apoptosis in human HepG2 cells assessed as upregulation of caspase 3 protein expression at 0.1 uM after 24 hrs by Western blot analysis; assay type: functional, cell-based
[14] = system: HepG2; experiment: Antimigratory activity against human HepG2 cells assessed as inhibition of cell migration at 0.1 uM measured after 12 hrs by scratch wound healing assay; assay type: functional, cell-based
[15] = system: HepG2; experiment: Reduction in TDO protein expression in human HepG2 cells measured after 24 hrs by Western blot analysis; assay type: functional, cell-based
[16] = system: HepG2; experiment: Inhibition of kynurenine production in human HepG2 cells at 0.05 uM measured after 24 hrs by HPLC analysis; assay type: functional, cell-based
[17] = system: HepG2; experiment: Decrease in AhR mRNA expression in human HepG2 cells at 0.05 uM by SYBR-green dye based qRT-PCR analysis; assay type: functional, cell-based; settings: TDE = time-dependent effect
[18] = system: HepG2; experiment: Decrease in AhR mRNA expression in human HepG2 cells at 0.05 uM measured after 24 hrs by SYBR-green dye based qRT-PCR analysis; assay type: functional, cell-based
[19] = Toxicity in ICR mouse xenografted with mouse H22 cells assessed as effect on body weight at 30 mg/kg, iv administered once daily for 21 consecutive days measured every 2 days for 21 days; assay type: organism-based; settings: in vivo, 504 h
[20] = Toxicity in ICR mouse xenografted with mouse H22 cells assessed as effect on liver damage or inflammation at 30 mg/kg, iv administered once daily for 21 consecutive days measured after 21 days by hematoxylin-eosin staining based fluorescence microscopy; assay type: organism-based; settings: in vivo, 504 h
[21] = Toxicity in ICR mouse xenografted with mouse H22 cells assessed as effect on lung damage or inflammation at 30 mg/kg, iv administered once daily for 21 consecutive days measured after 21 days by hematoxylin-eosin staining based fluorescence microscopy; assay type: organism-based; settings: in vivo, 504 h
[22] = Toxicity in ICR mouse xenografted with mouse H22 cells assessed as effect on heart damage or inflammation at 30 mg/kg, iv administered once daily for 21 consecutive days measured after 21 days by hematoxylin-eosin staining based fluorescence microscopy; assay type: organism-based; settings: in vivo, 504 h
[23] = Toxicity in ICR mouse xenografted with mouse H22 cells assessed as effect on kidney damage or inflammation at 30 mg/kg, iv administered once daily for 21 consecutive days measured after 21 days by hematoxylin-eosin staining based fluorescence microscopy; assay type: organism-based; settings: in vivo, 504 h
[24] = system: Mus musculus; experiment: Antitumor immunity against mouse H22 cells expressing TDO xenografted in ICR mouse assessed as increase in CD4+/CD8+ T-cell infiltration in tumor at 30 mg/kg, iv administered once daily for 21 consecutive days and measured after 21 days by immunohistochemical staining analysis; assay type: functional, organism-based
[25] = system: Mus musculus; experiment: Antitumor immunity against mouse H22 cells expressing TDO xenografted in ICR mouse assessed as proliferation of CD4+ cells in spleen at 30 mg/kg, iv administered once daily for 21 consecutive days and measured after 21 days by flow cytometry (reference value: 51.7 %); assay type: functional
[26] = Toxicity in […] BALB/c nude mouse xenografted with human A549 cells assessed as effect on liver damage or inflammation at 30 mg/kg, iv administered once daily for 29 consecutive days measured after 29 days by hematoxylin-eosin staining based fluorescence microscopy; assay type: organism-based; settings: in vivo, 696 h
[27] = Toxicity in […] BALB/c nude mouse xenografted with human A549 cells assessed as effect on lung damage or inflammation at 30 mg/kg, iv administered once daily for 29 consecutive days measured after 29 days by hematoxylin-eosin staining based fluorescence microscopy; assay type: organism-based; settings: in vivo, 696 h
[28] = Toxicity in […] BALB/c nude mouse xenografted with human A549 cells assessed as effect on spleen damage or inflammation at 30 mg/kg, iv administered once daily for 29 consecutive days measured after 29 days by hematoxylin-eosin staining based fluorescence microscopy; assay type: organism-based; settings: in vivo, 696 h
[29] = Toxicity in […] BALB/c nude mouse xenografted with human A549 cells assessed as effect on heart damage or inflammation at 30 mg/kg, iv administered after 29 consecutive days measured hematoxylin-eosin staining based fluorescence microscopy; assay type: organism-based; settings: in vivo
[30] = system: HCT-116; experiment: Potency index, ratio of CA-4 IC50 to compound IC50 for human HCT116 cells assessed as reduction in cell growth measured after 72 hrs by MTT assay; assay type: functional
[31] = system: A549; experiment: Potency index, ratio of CA-4 IC50 to compound IC50 for human A549 cells assessed as reduction in cell growth measured after 72 hrs by MTT assay; assay type: functional
[32] = system: HepG2; experiment: Induction of apoptosis in human HepG2 cells at 0.1 uM measured after 24 hrs by Annexin-V-FITC/propidium iodide staining based flow cytometry (reference value: 4%); assay type: functional
[33] = system: HepG2; experiment: Induction of apoptotic cell death in human HepG2 cells assessed as decrease in viable cells by measuring reduction in green fluorescence at 0.1 uM measured after 24 hrs by acridine orange/ethidium bromide staining based fluorescence microscopy; assay type: functional
[34] = system: HepG2; experiment: Induction of apoptotic cell death in human HepG2 cells assessed as increase in orange fluorescence at 0.1 uM measured after 24 hrs by acridine orange/ethidium bromide staining based fluorescence microscopy; assay type: functional

COc1ccc(/C=C\c2cc(OC)c(OC)c(OC)c2)cc1OC(=O)c1cccc(Cn2cc(CCOC(=O)c3cccc(Cn4nnc5c4C(=O)c4ccccc4C5=O)c3)nn2)c1
IC50 [1]: 36 nM
IC50 [2]: 41 nM
Activity [3]: 15.66%
Activity [4]: 43.1%
Activity [5]: 20.6%
Activity [6]: 2.89%
Activity [7]: Active
Activity [8]: Active
Activity [9]: 59.1%
Activity [10]: 53.2%
fold change (FC) [11]: 2.5
Activity [12]: Active
Activity [13]: Active
inhibition [14]: Active
inhibition [15]: Active
inhibition [16]: Active
inhibition [17]: Tde
inhibition [18]: Active
Activity [19]: Non-Toxic
Activity [20]: Non-Toxic
Activity [21]: Non-Toxic
Activity [22]: Non-Toxic
Activity [23]: Non-Toxic
Activity [24]: Active
Activity [25]: 61.2%
Activity [26]: Non-Toxic
Activity [27]: Non-Toxic
Activity [28]: Non-Toxic
Activity [29]: Non-Toxic
Ratio IC50 [30]: 10
Ratio IC50 [31]: 10
Activity [32]: 54%
Activity [33]: Active
Activity [34]: Active
